According to US12649737B2, “Compounds and uses thereof” (Foghorn Therapeutics Inc., priority 2020, dated 2026):

Columns and labels:
[1] = molecular target: T1, BRM (Homo sapiens, UniProt P51531); assay: ATPase catalytic activity assay of BRM (ADP-Glo); assay type: biochemical; settings: 30 nM BRM, 400 μM ATP, 20 nM salmon sperm DNA, 1 hour at room temperature
T1 construct: made in house; host or cells: High Five insect cells
Method: (§1) Example 38. Assay for ATPase Catalytic Activity of BRM and BRG-1
(§2) The ADP-Glo™ kinase assay is performed in two steps once the reaction is complete.

[2] = molecular target: T2, BRG-1 (Homo sapiens, UniProt P51532); assay: ATPase catalytic activity assay of BRG-1 (ADP-Glo); assay type: biochemical; settings: 30 nM BRG-1, 400 μM ATP, 20 nM salmon sperm DNA, 1 hour at room temperature; read-out: BRG1 ATPase: IC50
T2 construct: made in house; host or cells: High Five insect cells
Method: as §1, §2

T1 sequence (P51531 whole entry): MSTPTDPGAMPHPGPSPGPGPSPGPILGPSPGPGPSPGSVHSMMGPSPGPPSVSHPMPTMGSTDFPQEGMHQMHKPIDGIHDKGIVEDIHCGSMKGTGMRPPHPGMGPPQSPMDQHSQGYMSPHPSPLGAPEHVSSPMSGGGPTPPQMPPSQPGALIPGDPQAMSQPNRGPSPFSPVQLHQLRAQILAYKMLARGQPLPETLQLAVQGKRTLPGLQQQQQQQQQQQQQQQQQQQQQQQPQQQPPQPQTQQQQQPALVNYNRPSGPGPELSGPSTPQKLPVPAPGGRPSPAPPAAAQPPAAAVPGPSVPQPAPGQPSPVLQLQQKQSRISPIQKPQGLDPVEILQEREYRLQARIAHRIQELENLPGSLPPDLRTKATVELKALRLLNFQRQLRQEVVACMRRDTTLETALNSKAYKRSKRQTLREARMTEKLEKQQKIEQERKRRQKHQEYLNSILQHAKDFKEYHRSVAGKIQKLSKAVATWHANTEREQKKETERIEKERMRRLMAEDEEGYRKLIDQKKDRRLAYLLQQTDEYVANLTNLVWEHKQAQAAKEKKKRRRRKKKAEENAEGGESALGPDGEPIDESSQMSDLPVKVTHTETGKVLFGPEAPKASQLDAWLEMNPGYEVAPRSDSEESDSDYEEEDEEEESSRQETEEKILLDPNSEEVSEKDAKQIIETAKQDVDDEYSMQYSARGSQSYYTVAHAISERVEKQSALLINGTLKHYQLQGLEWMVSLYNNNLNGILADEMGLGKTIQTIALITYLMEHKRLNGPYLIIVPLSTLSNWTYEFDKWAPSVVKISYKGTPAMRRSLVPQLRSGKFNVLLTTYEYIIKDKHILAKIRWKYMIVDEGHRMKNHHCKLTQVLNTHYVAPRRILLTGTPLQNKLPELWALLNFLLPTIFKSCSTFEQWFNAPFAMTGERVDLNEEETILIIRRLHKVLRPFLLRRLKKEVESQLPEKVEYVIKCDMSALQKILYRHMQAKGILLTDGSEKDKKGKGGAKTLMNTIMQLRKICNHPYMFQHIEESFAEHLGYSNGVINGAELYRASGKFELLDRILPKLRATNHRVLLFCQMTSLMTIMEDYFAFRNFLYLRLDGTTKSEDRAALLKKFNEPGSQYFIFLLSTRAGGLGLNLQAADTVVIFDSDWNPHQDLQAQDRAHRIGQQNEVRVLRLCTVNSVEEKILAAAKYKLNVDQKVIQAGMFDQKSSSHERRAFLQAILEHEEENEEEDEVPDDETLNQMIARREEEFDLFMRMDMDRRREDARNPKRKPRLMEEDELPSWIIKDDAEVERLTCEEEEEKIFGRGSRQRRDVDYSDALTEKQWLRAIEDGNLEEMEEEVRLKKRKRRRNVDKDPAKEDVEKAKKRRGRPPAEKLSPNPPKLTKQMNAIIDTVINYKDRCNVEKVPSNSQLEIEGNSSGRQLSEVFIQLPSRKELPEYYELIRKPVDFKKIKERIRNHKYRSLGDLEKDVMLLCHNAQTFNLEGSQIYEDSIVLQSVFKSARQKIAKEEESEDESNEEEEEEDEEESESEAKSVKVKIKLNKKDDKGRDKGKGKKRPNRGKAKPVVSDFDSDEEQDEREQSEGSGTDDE
T2 sequence (P51532 whole entry): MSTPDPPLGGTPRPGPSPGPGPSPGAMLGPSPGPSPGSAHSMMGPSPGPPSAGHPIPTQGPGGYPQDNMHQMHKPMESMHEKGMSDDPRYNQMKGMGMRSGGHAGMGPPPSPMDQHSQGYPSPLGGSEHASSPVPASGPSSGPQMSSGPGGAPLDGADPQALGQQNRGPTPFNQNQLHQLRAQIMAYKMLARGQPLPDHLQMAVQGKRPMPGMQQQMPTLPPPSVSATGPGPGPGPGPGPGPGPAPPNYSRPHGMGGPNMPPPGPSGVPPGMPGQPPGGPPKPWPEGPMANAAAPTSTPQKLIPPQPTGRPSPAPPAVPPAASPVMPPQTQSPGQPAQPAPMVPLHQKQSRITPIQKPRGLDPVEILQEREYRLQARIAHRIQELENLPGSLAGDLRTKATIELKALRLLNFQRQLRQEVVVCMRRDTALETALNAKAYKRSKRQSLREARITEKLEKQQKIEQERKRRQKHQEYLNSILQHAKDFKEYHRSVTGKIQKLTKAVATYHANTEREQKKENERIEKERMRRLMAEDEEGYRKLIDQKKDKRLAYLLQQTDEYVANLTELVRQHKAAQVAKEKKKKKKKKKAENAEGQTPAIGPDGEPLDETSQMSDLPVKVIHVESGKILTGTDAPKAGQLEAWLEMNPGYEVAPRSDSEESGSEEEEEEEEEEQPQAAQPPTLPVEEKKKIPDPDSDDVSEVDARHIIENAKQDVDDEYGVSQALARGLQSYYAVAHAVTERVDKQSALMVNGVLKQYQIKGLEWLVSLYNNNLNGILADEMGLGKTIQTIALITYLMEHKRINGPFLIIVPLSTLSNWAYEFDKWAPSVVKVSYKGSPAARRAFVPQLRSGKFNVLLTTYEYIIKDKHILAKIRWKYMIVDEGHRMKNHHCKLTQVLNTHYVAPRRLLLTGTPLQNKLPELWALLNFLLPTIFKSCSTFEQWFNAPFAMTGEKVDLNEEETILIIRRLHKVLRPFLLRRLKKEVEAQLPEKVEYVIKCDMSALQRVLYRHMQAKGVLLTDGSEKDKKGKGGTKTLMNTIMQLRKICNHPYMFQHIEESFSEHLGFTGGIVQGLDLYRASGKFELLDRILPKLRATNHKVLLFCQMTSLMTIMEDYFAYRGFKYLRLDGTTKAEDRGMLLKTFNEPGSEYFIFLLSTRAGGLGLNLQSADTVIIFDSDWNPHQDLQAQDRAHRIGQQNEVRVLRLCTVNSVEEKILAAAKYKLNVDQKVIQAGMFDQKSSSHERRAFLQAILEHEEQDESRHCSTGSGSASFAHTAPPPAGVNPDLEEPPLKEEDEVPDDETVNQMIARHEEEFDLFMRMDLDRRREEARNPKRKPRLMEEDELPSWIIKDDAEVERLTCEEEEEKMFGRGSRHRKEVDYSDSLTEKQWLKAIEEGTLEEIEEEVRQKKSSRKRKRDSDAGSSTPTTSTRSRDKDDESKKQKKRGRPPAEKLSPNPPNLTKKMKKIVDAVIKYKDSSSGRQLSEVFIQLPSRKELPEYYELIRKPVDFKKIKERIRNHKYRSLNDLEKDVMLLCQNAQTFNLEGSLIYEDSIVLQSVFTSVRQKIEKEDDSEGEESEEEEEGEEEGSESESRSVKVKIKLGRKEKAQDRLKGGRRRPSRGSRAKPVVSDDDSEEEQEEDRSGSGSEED

Nc1ccc(C(=O)NCc2nc3ccc(-c4cccc(-c5ccncc5)c4)nc3[nH]2)cc1 [Compound 1, 4-amino-N-((5-(3-(pyridin-4-yl)phenyl)-3H-imidazo[4,5-b]pyridin-2-yl)methyl)benzamide] showed an IC50 [1] of 100 to 1000 nM and an IC50 [2] of 100 to 1000 nM.
CS(=O)(=O)n1ccc(C(=O)NCc2nc3ccc(-c4cccc(-c5ccncc5)c4)nc3[nH]2)c1 [Compound 2] was tested, and the IC50 [1] was 10 to 100 nM and the IC50 [2] was 10 to 100 nM.
With CC(C)S(=O)(=O)n1ccc(C(=O)NCc2nc3ccc(-c4cccc(-c5ccncc5)c4)nc3[nH]2)c1 [Compound 3] the IC50 [1] was 10 to 100 nM and the IC50 [2] was 100 to 1000 nM.
Compound C[C@H](NC(=O)c1ccn(S(C)(=O)=O)c1)c1nc2ccc(-c3cccc(-c4ccncc4)c3)nc2[nH]1 [Compound 4] has an IC50 [1] of 10 to 100 nM and an IC50 [2] of 10 to 100 nM.
C[C@@H](NC(=O)c1ccn(S(C)(=O)=O)c1)c1nc2ccc(-c3cccc(-c4ccncc4)c3)nc2[nH]1 [Compound 5] was tested, and the IC50 [1] was 100 to 1000 nM and the IC50 [2] was 100 to 1000 nM.
Work on COc1ccc(-c2ccc3nc(CNC(=O)c4ccn(C(C)(C)C)c4)[nH]c3n2)cc1 [Compound 6] yielded an IC50 [1] of 100 to 1000 nM and an IC50 [2] of 100 to 1000 nM.
Work on CS(=O)(=O)n1ccc(C(=O)NCc2nc3ccc(-c4cccc(N5CCC5)c4)cc3[nH]2)c1 [Compound 7] yielded an IC50 [1] of 100 to 1000 nM and an IC50 [2] of 100 to 1000 nM.
With CS(=O)(=O)n1ccc(C(=O)NCc2nc3ccc(-c4cccc(N5CCC(O)CC5)c4)cc3[nH]2)c1 [Compound 8, N-((6-(3-(4-hydroxypiperidin-1-yl)phenyl)-1H-benzo[d]imidazol-2-yl)methyl)-1-(methylsulfonyl)-1H-pyrrole-3-carboxamide] the IC50 [1] was 10 to 100 nM and the IC50 [2] was 100 to 1000 nM.
In the case of CS(=O)(=O)n1ccc(C(=O)NCc2nc3ccc(-c4ccc(N5CCC5)cc4)nc3[nH]2)c1 [Compound 9], the IC50 [1] is reported as 10 to 100 nM and the IC50 [2] is reported as 10 to 100 nM.
Work on CS(=O)(=O)n1ccc(C(=O)NCc2nc3ccc(-c4cccc(N5CCC5)c4)nc3[nH]2)c1 [Compound 10] yielded an IC50 [1] of 10 to 100 nM and an IC50 [2] of 100 to 1000 nM.
Work on C[C@@H]1CN(c2cccc(-c3ccc4nc(CNC(=O)c5ccn(S(C)(=O)=O)c5)[nH]c4c3)c2)C[C@H](C)O1 [Compound 11] yielded an IC50 [1] of 10 to 100 nM and an IC50 [2] of 10 to 100 nM.
Compound CS(=O)(=O)n1ccc(C(=O)NCc2nc3ccc(-c4cccc(N5CCC(O)CC5)c4)nc3[nH]2)c1 [Compound 12, N-((5-(3-(4-hydroxypiperidin-1-yl)phenyl)-3H-imidazo[4,5-b]pyridin-2-yl)methyl)-1-(methylsulfonyl)-1H-pyrrole-3-carboxamide] has an IC50 [1] of 100 to 1000 nM and an IC50 [2] of 100 to 1000 nM.
With C[C@@H]1CN(c2cccc(-c3ccc4nc(CNC(=O)c5ccn(S(C)(=O)=O)c5)[nH]c4n3)c2)C[C@H](C)O1 [Compound 13] the IC50 [1] was 10 to 100 nM and the IC50 [2] was 10 to 100 nM.
For C[C@@H]1CN(c2ccc(-c3ccc4nc(CNC(=O)c5ccn(S(C)(=O)=O)c5)[nH]c4n3)cc2)C[C@H](C)O1 [Compound 14], the IC50 [1] was 100 to 1000 nM and the IC50 [2] was 100 to 1000 nM.
C[C@@H]1CN(c2cccc(-c3ccc4nc(CNC(=O)c5ccn(C(C)(C)C)c5)[nH]c4c3)c2)C[C@H](C)O1 [Compound 15] was tested, and the IC50 [1] was 100 to 1000 nM and the IC50 [2] was 100 to 1000 nM.
For COc1cccc(-c2ccc3nc(CNC(=O)c4ccn(C(C)(C)C)c4)[nH]c3c2)c1 [Compound 16], the IC50 [1] was 100 to 1000 nM and the IC50 [2] was 100 to 1000 nM.
In the case of COc1cccc(-c2ccc3nc(CNC(=O)c4cc(C)n(S(C)(=O)=O)c4)[nH]c3c2)c1 [Compound 17], the IC50 [1] is reported as 10 to 100 nM and the IC50 [2] is reported as 10 to 100 nM.
C[C@@H]1CN(c2cccc(-c3ccc4nc(CNC(=O)c5ccn(C6(C#N)CC6)c5)[nH]c4n3)c2)C[C@H](C)O1 [Compound 18] was tested, and the IC50 [1] was 100 to 1000 nM and the IC50 [2] was 100 to 1000 nM.
In the case of C[C@@H]1CN(c2cccc(-c3ccc4nc(CNC(=O)c5ccn(C(C)(C)C)c5)[nH]c4n3)c2)C[C@H](C)O1 [Compound 19], the IC50 [1] is reported as 100 to 1000 nM and the IC50 [2] is reported as 100 to 1000 nM.
Cn1ccc2ccc(-c3ccc4nc(CNC(=O)c5ccn(C6(C)COC6)c5)[nH]c4c3)cc2c1=O [Compound 20, N-((6-(2-methyl-1-oxo-1,2-dihydroisoquinolin-7-yl)-1H-benzo[d]imidazol-2-yl)methyl)-1-(3-methyloxetan-3-yl)-1H-pyrrole-3-carboxamide] gave an IC50 [1] of 100 to 1000 nM and an IC50 [2] of 100 to 1000 nM.
Work on COC(=O)N1CCC[C@@H](c2ccc3nc(CNC(=O)c4ccn(S(C)(=O)=O)c4)[nH]c3c2)C1 [Compound 21, (S)-methyl 3-(2-((1-(methylsulfonyl)-1H-pyrrole-3-carboxamido)methyl)-1H-benzo[d]imidazol-6-yl)piperidine-1-carboxylate] yielded an IC50 [1] of 100 to 1000 nM and an IC50 [2] of 100 to 1000 nM.
COC(=O)N1CCC[C@H](c2ccc3nc(CNC(=O)c4ccn(S(C)(=O)=O)c4)[nH]c3c2)C1 [Compound 22, (R)-methyl 3-(2-((1-(methylsulfonyl)-1H-pyrrole-3-carboxamido)methyl)-1H-benzo[d]imidazol-6-yl)piperidine-1-carboxylate] was tested, and the IC50 [1] was 100 to 1000 nM and the IC50 [2] was > 1000 nM.
CS(=O)(=O)n1ccc(C(=O)NCc2nc3ccc(N4CCCC(C5CCC5)C4)nc3[nH]2)c1 (stereo not shown) [Compound 23] gave an IC50 [1] of 100 to 1000 nM and an IC50 [2] of 100 to 1000 nM.
CC(C)S(=O)(=O)n1ccc(C(=O)NCc2nc3ccc(-c4ccc5ccn(C)c(=O)c5c4)cc3[nH]2)c1 [Compound 24] gave an IC50 [1] of 100 to 1000 nM and an IC50 [2] of 100 to 1000 nM.
With COC(=O)N1CCC[C@@H](c2ccc3nc(CNC(=O)c4ccn(S(C)(=O)=O)c4)[nH]c3n2)C1 [Compound 25] the IC50 [1] was 100 to 1000 nM and the IC50 [2] was 100 to 1000 nM.
In the case of COC(=O)N1CCC[C@H](c2ccc3nc(CNC(=O)c4ccn(S(C)(=O)=O)c4)[nH]c3n2)C1 [Compound 26], the IC50 [1] is reported as 100 to 1000 nM and the IC50 [2] is reported as > 1000 nM.
For CS(=O)(=O)n1ccc(C(=O)NCc2nc3ccc(-c4ccccc4)cc3[nH]2)c1 [Compound 27], the IC50 [1] was 100 to 1000 nM and the IC50 [2] was 100 to 1000 nM.
CS(=O)(=O)n1ccc(C(=O)NCc2nc3ccc(-c4ccc(OC(F)(F)F)cc4)nc3[nH]2)c1 [Compound 28] showed an IC50 [1] of 10 to 100 nM and an IC50 [2] of 10 to 100 nM.
Compound CS(=O)(=O)n1ccc(C(=O)NCc2nc3ccc(-c4cccc(OC(F)(F)F)c4)nc3[nH]2)c1 [Compound 29] has an IC50 [1] of 100 to 1000 nM and an IC50 [2] of 100 to 1000 nM.
With CC(C)(C)n1ccc(C(=O)NCc2nc3ccc(-c4cc(Cl)cc(C#N)c4)cc3[nH]2)c1 [Compound 30] the IC50 [1] was 10 to 100 nM and the IC50 [2] was 100 to 1000 nM.
CN1Cc2ccc(-c3ccc4nc(CNC(=O)c5ccn(C(C)(C)C)c5)[nH]c4c3)cc2C1=O [Compound 31] was tested, and the IC50 [1] was 10 to 100 nM and the IC50 [2] was 10 to 100 nM.
With Cn1ccc2cc(-c3ccc4nc(CNC(=O)c5ccn(C(C)(C)C)c5)[nH]c4c3)ccc21 [Compound 32] the IC50 [1] was 10 to 100 nM and the IC50 [2] was 10 to 100 nM.
Work on Cn1cc2ccc(-c3ccc4nc(CNC(=O)c5ccn(C(C)(C)C)c5)[nH]c4c3)cc2n1 [Compound 33] yielded an IC50 [1] of 10 to 100 nM and an IC50 [2] of 10 to 100 nM.
Compound CC(C)(C)n1ccc(C(=O)NCc2nc3ccc(-c4ccc5ncccc5c4)cc3[nH]2)c1 [Compound 34] has an IC50 [1] of 10 to 100 nM and an IC50 [2] of 10 to 100 nM.
COc1ccc(-c2ccc3nc(CNC(=O)c4ccn(C(C)(C)C)c4)[nH]c3c2)cc1Cl [Compound 35] gave an IC50 [1] of 10 to 100 nM and an IC50 [2] of 100 to 1000 nM.
Cn1ncc2ccc(-c3ccc4nc(CNC(=O)c5ccn(C(C)(C)C)c5)[nH]c4c3)cc21 [Compound 36] gave an IC50 [1] of 100 to 1000 nM and an IC50 [2] of 100 to 1000 nM.
CC(C)(C)n1ccc(C(=O)NCc2nc3ccc(-c4ccc(C5CC5)cc4)cc3[nH]2)c1 [Compound 37] showed an IC50 [1] of 100 to 1000 nM and an IC50 [2] of 100 to 1000 nM.
In the case of CC(C)(C)n1ccc(C(=O)NCc2nc3ccc(-c4cncc5ccccc45)cc3[nH]2)c1 [Compound 38], the IC50 [1] is reported as 100 to 1000 nM and the IC50 [2] is reported as 100 to 1000 nM.
